From patent US10975056B2 (GlaxoSmithKline Intellectual Property Development Limited, priority 2016, dated 2021)
Several values for one entry are separate records, joined by “and”; a condition that tells them apart may be missing. Identical values can stand only once. Counter-ions that a name gives are not always drawn. Like-named read-outs stand apart in the source and are kept apart here.

Legend:
DNMT1 = DNMT1 (Homo sapiens, UniProt P26358); assay: DNMT1 biochemical activity, breaklight assay and/or SPA assay
Sequence of DNMT1 (P26358 whole entry, looked up): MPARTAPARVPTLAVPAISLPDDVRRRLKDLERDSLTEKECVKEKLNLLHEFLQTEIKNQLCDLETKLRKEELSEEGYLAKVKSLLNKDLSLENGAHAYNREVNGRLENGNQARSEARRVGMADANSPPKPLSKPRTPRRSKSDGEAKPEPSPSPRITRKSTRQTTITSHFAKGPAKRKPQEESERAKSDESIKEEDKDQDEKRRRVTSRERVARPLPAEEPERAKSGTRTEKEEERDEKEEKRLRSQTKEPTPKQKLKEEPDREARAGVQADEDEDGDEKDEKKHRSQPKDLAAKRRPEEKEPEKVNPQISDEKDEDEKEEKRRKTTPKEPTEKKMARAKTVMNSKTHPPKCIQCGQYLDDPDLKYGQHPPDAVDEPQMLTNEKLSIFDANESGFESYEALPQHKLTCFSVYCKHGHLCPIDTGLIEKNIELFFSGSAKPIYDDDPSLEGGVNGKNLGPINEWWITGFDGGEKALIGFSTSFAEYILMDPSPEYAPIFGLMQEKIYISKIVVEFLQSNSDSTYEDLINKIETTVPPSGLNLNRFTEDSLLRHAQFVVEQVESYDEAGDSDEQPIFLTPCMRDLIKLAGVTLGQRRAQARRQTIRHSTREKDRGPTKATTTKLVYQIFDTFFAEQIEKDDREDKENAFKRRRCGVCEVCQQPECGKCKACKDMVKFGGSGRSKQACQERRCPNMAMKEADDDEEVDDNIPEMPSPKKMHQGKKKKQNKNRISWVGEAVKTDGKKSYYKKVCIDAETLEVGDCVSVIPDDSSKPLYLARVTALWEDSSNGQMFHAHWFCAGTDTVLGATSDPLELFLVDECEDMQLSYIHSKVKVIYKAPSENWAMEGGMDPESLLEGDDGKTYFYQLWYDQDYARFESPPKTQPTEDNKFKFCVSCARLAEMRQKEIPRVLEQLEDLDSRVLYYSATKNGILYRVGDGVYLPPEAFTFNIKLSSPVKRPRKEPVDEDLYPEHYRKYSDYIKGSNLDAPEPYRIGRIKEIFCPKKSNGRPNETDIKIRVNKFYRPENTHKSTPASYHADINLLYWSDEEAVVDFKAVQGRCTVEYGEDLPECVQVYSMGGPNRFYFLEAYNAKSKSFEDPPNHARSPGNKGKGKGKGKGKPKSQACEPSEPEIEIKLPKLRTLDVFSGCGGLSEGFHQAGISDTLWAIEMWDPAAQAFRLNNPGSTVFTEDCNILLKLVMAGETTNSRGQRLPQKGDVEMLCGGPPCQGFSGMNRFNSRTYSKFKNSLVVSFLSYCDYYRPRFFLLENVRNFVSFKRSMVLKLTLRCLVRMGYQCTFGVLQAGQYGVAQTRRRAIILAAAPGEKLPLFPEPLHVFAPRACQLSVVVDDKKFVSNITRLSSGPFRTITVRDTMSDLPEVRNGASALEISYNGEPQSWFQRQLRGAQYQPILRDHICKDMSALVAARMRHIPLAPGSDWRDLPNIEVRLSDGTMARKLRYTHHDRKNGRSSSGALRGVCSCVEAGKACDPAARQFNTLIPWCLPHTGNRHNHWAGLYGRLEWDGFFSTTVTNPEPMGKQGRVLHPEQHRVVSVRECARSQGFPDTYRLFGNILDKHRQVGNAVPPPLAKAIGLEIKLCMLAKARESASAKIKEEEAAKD

[1] = tested on: erythroid progenitor cells (EPCs); assay: Fetal hemoglobin (HbF) ELISA in day 7 erythroid progenitor cells; assay type: cell-based, human; conditions: Homo sapiens, Erythroid progenitor cell, HbF ELISA, day 7 EPCs, 5 days; read-out: EPC ELISA (pEC50 category) (converted);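 further: for fetal hemoglobin induction normalized to vehicle-treated cells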
Procedure, shortened: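 Day 7 EPCs from human bone marrow CD34+ cells were plated at 1,000 cells/well in media with 3 U/mL rhEPO. They were exposed to a 22-point dilution ([…]) for 5 days at 37 °C. Lysate HbF was measured by sandwich ELISA (OD450) and normalized to DMSO control wells.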

[2] = binned activity in either the breaklight or the SPA assay
[3] = binned activity in either the breaklight or the SPA assay, read-out: DNMT1 BioChemical (pIC50 category) (converted)
[4] = breaklight assay and/or SPA assay, repeated experimental runs, read-out: average pIC50 against DNMT1 (converted)

DNMT1 BioChemical (pIC50 category) (DNMT1; [2]) | EC50 [1] [nM] | IC50 (DNMT1; [3]) [nM] | IC50 (DNMT1; [4]) | average pIC50 against DNMT1 (DNMT1; breaklight assay and/or SPA assay, repeated experimental runs) | SMILES
D (Category D: ≥6.5) | < 316 | – | – | – | CCc1c(C#N)c(SC(C(N)=O)c2ccccc2)nc(N2CCC(C)(NCCO)CC2)c1C#N (centres unmarked) [Example 643, 2-((3,5-dicyano-4-ethyl-6-(4-((2-hydroxyethyl)amino)-4-methylpiperidin-1-yl)pyridin-2-yl)thio)-2-phenylacetamide]
D (Category D: ≥6.5) | < 316 | – | – | – | CCc1c(C#N)c(SC(C(N)=O)c2ccccc2)nc(N(C)CC(=O)N2CC[C@H](O)C2)c1C#N (stereo partly drawn) [Example 616, 2-((3,5-dicyano-4-ethyl-6-((2-((S)-3-hydroxypyrrolidin-1-yl)-2-oxoethyl)(methyl)amino)pyridin-2-yl)thio)-2-phenylacetamide]
D (Category D: ≥6.5) | < 316 | – | – | – | CCc1c(C#N)c(SC(C(N)=O)c2ccccc2)nc(N2CCC(N(C)CC(C)(C)OC)CC2)c1C#N (centres unmarked) [Example 492, 2-((3,5-dicyano-4-ethyl-6-(4-((2-methoxy-2-methylpropyl)(methyl)amino)piperidin-1-yl)pyridin-2-yl)thio)-2-phenylacetamide]
D (Category D: ≥6.5) | < 316 | – | – | – | CCc1c(C#N)c(SC(C(N)=O)c2ccccc2)nc(N(C)CC(=O)N(C)CC2(CO)CC2)c1C#N (centres unmarked) [Example 609, 2-((6-((2-amino-2-oxo-1-phenylethyl)thio)-3,5-dicyano-4-ethylpyridin-2-yl)(methyl)amino)-N-((1-(hydroxymethyl)cyclopropyl)methyl)-N-methylacetamide]
– | < 316 | 316 to 1000 | ≥ 1000 nM | – | CN1CCN(c2nc(SC(C(N)=O)c3ccccc3)c(C#N)c(C3CC3)c2C#N)CCC1=O (centres unmarked) [Example 109, 2-{[3,5-Dicyano-4-cyclopropyl-6-(4-methyl-5-oxo-1,4-diazepan-1-yl)pyridin-2-yl]sulfanyl}-2-phenylacetamide]
– | 1000 to 31600 | 316 to 1000 | – | – | CCc1c(C#N)c(SCc2ccc(CNC(C)=O)cc2)nc(N2CCNC(=O)C2)c1C#N [Example 329]
D (Category D: ≥6.5) | 1000 to 31600 | – | – | – | N#Cc1c(SC(C(N)=O)c2ccccc2)nc(N2CC(O)C2)c(C#N)c1C1CC1 (centres unmarked) [Example 387, 2-((3,5-Dicyano-4-cyclopropyl-6-(13-hydroxyazetidin-1-yl)pyridin-2-yl)thio)-2-phenylacetamide]
– | 1000 to 31600 | 316 to 1000 | – | – | CCc1c(C#N)c(SCc2cnn(CC(N)=O)c2)nc(N(C)C)c1C#N [Example 285, 2-(4-(((3,5-Dicyano-6-(dimethylamino)-4-ethylpyridin-2-yl)thio)methyl)-1H-pyrazol-1-yl)acetamide]
– | > 31600 | 1000 to 31600 | ≥ 1000 nM and 2000 nM | – | CCc1c(C#N)c(SCc2ccc(CC(=O)O)cc2)nc(N2CCCN(C)CC2)c1C#N [Example 72, 2-(4-(((3,5-Dicyano-4-ethyl-6-(4-methyl-1,4-diazepan-1-yl)pyridin-2-yl)thio)methyl)phenyl)acetic acid]
D (Category D: ≥6.5) | < 316 | – | 200 nM | > 6.5 | N#Cc1c(SC(C(N)=O)c2ccccc2)nc(N2CC[C@H](N)C2)c(C#N)c1C1CC1 (stereo partly drawn) [Example 115, 2-({6-[(3S)-3-Aminopyrrolidin-1-yl]-3,5-dicyano-4-cyclopropylpyridin-2-yl}sulfanyl)-2-phenylacetamide]
D (Category D: ≥6.5) | 1000 to 31600 | – | 316 to 1000 nM and 316 nM | – | CCc1c(C#N)c(SC(C(N)=O)c2ccccc2)nc(N2CCC(NC(=O)CO)CC2)c1C#N (centres unmarked) [Example 286, N-(1-(6-((2-Amino-2-oxo-1-phenylethyl)thio)-3,5-dicyano-4-ethylpyridin-2-yl)piperidin-4-yl)-2-hydroxyacetamide]
D (Category D: ≥6.5) | 1000 to 31600 | – | – | – | CCc1c(C#N)c(SCc2ccc(N(C)S(C)(=O)=O)cc2)nc(N2CC[C@H](CNC(=O)CN)C2)c1C#N [Example 650, (R)-2-amino-N-((1-(3,5-dicyano-4-ethyl-6-((4-(N-methylmethylsulfonamido)benzyl)thio)pyridin-2-yl)pyrrolidin-3-yl)methyl)acetamide]
D (Category D: ≥6.5) | < 316 | – | – | – | CCc1c(C#N)c(SCc2ccc(N(C)S(C)(=O)=O)cc2)nc(N(C)CCNCC(C)(C)C)c1C#N [Example 458, N-(4-(((3,5-dicyano-4-ethyl-6-(methyl(2-(neopentylamino)ethyl)amino)pyridin-2-yl)thio)methyl)phenyl)-N-methylmethanesulfonamide]
D (Category D: ≥6.5) | < 316 | – | – | – | CCc1c(C#N)c(SCc2ccc(N(C)S(C)(=O)=O)cc2)nc(N2CCCC(CN(C)C)C2)c1C#N (centres unmarked) [Example 597, N-(4-(((3,5-dicyano-6-(3-((dimethylamino)methyl)piperidin-1-yl)-4-ethylpyridin-2-yl)thio)methyl)phenyl)-N-methylmethanesulfonamide]
D (Category D: ≥6.5) | 1000 to 31600 | – | – | – | CCc1c(C#N)c(SC(C(N)=O)c2ccc(C(N)=O)cc2)nc(N(C)C)c1C#N (centres unmarked) [Example 375, 4-(2-Amino-1-((3,5-dicyano-6-(dimethylamino)-4-ethylpyridin-2-yl)thio)-2-oxoethyl)benzamide]
D (Category D: ≥6.5) | < 316 | – | – | – | CCc1c(C#N)c(SC(C(N)=O)c2ccccc2)nc(N2CCOC(CNC)C2)c1C#N (centres unmarked) [Example 563, 2-((3,5-dicyano-4-ethyl-6-(2-((methylamino)methyl)morpholino)pyridin-2-yl)thio)-2-phenylacetamide]
D (Category D: ≥6.5) | 1000 to 31600 | – | – | – | CCc1c(C#N)c(SC(C(N)=O)c2ccccc2)nc(N(C)Cc2n[nH]c(=O)[nH]2)c1C#N (centres unmarked) [Example 340, 2-((3,5-Dicyano-4-ethyl-6-(methyl((5-oxo-4,5-dihydro-1H-1,2,4-triazol-3-yl)methyl)amino)pyridin-2-yl)thio)-2-phenylacetamide]
D (Category D: ≥6.5) | < 316 | – | – | – | CCc1c(C#N)c(SC(C(N)=O)c2ccccc2)nc(N2CCC(N3CCC[C@H]3C)CC2)c1C#N (stereo partly drawn) [Example 451, 2-((3,5-dicyano-4-ethyl-6-(4-((R)-2-methylpyrrolidin-1-yl)piperidin-1-yl)pyridin-2-yl)thio)-2-phenylacetamide]
D (Category D: ≥6.5) | 316 to 1000 | – | – | – | CCc1c(C#N)c(SC(C(N)=O)c2ccccc2)nc(N(C)CCN2CC[C@@H](N)C2)c1C#N (stereo partly drawn) [Example 529, 2-((6-((2-((R)-3-aminopyrrolidin-1-yl)ethyl)(methyl)amino)-3,5-dicyano-4-ethylpyridin-2-yl)thio)-2-phenylacetamide]
D (Category D: ≥6.5) | < 316 | – | – | – | CCc1c(C#N)c(SC(C(N)=O)c2ccccc2)nc(N2CCC(N3CCC[C@@H]3CO)CC2)c1C#N (single isomer, unassigned) [Example 464]
– | > 31600 | 316 to 1000 | – | – | CCc1c(Cl)c(SC(C(N)=O)c2ccccc2)nc(N2CCCN(CCO)CC2)c1Cl (centres unmarked) [Example 203, 2-((3,5-Dichloro-4-ethyl-6-(4-(2-hydroxyethyl)-1,4-diazepan-1-yl)pyridin-2-yl)thio)-2-phenylacetamide]
D (Category D: ≥6.5) | 316 to 1000 | – | – | – | CCc1c(C#N)c(SCc2ccc(N(C)S(C)(=O)=O)cc2)nc(N2CCOC(CNC)C2)c1C#N (centres unmarked) [Example 596, N-(4-(((3,5-dicyano-4-ethyl-6-(2-((methylamino)methyl)morpholino)pyridin-2-yl)thio)methyl)phenyl)-N-methylmethanesulfonamide]
D (Category D: ≥6.5) | 316 to 1000 | – | – | – | CCc1c(C#N)c(SC(C(N)=O)c2ccccc2)nc(N2CCC[C@@H](CNC(=O)CN)C2)c1C#N (stereo partly drawn) [Example 589, 2-amino-N-(((3S)-1-(6-((2-amino-2-oxo-1-phenylethyl)thio)-3,5-dicyano-4-ethylpyridin-2-yl)piperidin-3-yl)methyl)acetamide]
D (Category D: ≥6.5) | < 316 | – | – | – | CCc1c(C#N)c(SC(C(N)=O)c2ccccc2)nc(N2CC[C@H](ONC(=N)N)C2)c1C#N (stereo partly drawn) [Example 625, 2-((3,5-dicyano-4-ethyl-6-((S)-3-(guanidinooxy)pyrrolidin-1-yl)pyridin-2-yl)thio)-2-phenylacetamide]
D (Category D: ≥6.5) | 1000 to 31600 | – | – | – | CCc1c(C#N)c(SC(C(N)=O)c2ccccc2)nc(N2CCC(NC(=O)[C@H](N)CO)CC2)c1C#N (stereo partly drawn) [Example 398, (2R)-2-Amino-N-(1-(6-((2-amino-2-oxo-1-phenylethyl)thio)-3,5-dicyano-4-ethylpyridin-2-yl)piperidin-4-yl)-3-hydroxypropanamide]
D (Category D: ≥6.5) | 1000 to 31600 | – | – | – | CCc1c(C#N)c(SC(C(N)=O)c2ccccc2)nc(N(C)CC(=O)N2C[C@H](CO)[C@@H](O)C2)c1C#N (stereo partly drawn) [Example 664, 2-((3,5-dicyano-4-ethyl-6-((2-((3R,4R)-3-hydroxy-4-(hydroxymethyl)pyrrolidin-1-yl)-2-oxoethyl)(methyl)amino)pyridin-2-yl)thio)-2-phenylacetamide]

SMILES | DNMT1 BioChemical (pIC50 category) (DNMT1; [2]) | EC50 [1] [nM] | IC50 (DNMT1; [3]) [nM] | IC50 (DNMT1; [4]) | average pIC50 against DNMT1 (DNMT1; breaklight assay and/or SPA assay, repeated experimental runs)
CCc1c(C#N)c(SCc2ccc(S(N)(=O)=O)cc2)nc(N2CCC(NC(=O)CN)CC2)c1C#N [Example 339, 2-Amino-N-(1-(3,5-dicyano-4-ethyl-6-((4-sulfamoylbenzyl)thio)pyridin-2-yl)piperidin-4-yl)acetamide hydrochloride] | D (Category D: ≥6.5) | 1000 to 31600 | – | – | –
